Data on two molecules can be found in article PMC6105804, “In Vitro and In Vivo Evaluation of APX001A/APX001 and Other Gwt1 Inhibitors against Cryptococcus” (Antimicrobial Agents and Chemotherapy, 2018).

The test system of series [1] is C. neoformans. In words: Broth microdilution susceptibility testing (CLSI M27-A3). Format: cell-based, Cryptococcus neoformans. Particulars: Cryptococcus neoformans. From the text:
(§1) C. neoformans strains H99, DUMC 118.00, and DUMC 158.03 and C. gattii strains R272 and RSA-MW-3515 were obtained from Duke University. C. albicans 90028, A. fumigatus MYA3626, C. neoformans 14116, C. neoformans 76484, and the pathogenic Cryptococcus reference strains panel (ATCC MP-11) were obtained from the American Type Culture Collection (ATCC; Manassas, VA, USA). The ATCC MP-11 panel consists of strains representing eight molecular types and three subtypes of C. neoformans and C. gattii.
(§2) To establish the antimicrobial activity of the APX001A analogs, broth microdilution susceptibility testing was performed according to Clinical and Laboratory Standards Institute (CLSI) guidelines M27-A3 ([47]) for yeasts and M38-A2 for molds ([48]). APX001A and analogs were first diluted in DMSO to obtain intermediate dilutions. These were further diluted in microtiter plates to obtain a final concentration of 2 to 0.002 μg/ml. One microliter of DMSO was added to the no-drug control wells. The solutions were mixed on a plate shaker for 10 min, and the plates were incubated at 35°C for 40 to 48 h (C. albicans, A. fumigatus) and 72 h (C. neoformans). The minimum concentration that led to a 50% reduction in fungal growth compared to that for the control (determined with the aid of a reading mirror) was determined as the MIC for C. albicans and C. neoformans. The minimum concentration that led to the shortening of hyphae compared to the hyphal growth in DMSO control wells was determined as the minimum effective concentration (MEC) for A. fumigatus (as read for the echinocandins). The use of the MIC and MEC endpoints for APX001A (formerly E1210) against yeasts and molds, respectively, has been described previously ([19][–][21]). For the cryptococcal synergy studies, APX001A and APX2020 MIC values were read at 50% inhibition.
On the technique in general: In broth dilution the organism is exposed to a series of concentrations in liquid medium.

Another series relates to C. gattii. Described as above. Format: cell-based. The following applies: Cryptococcus gattii.
Text: as §1, §2

Series [2] relates to C. neoformans strain H99. The experiment in a line: Delayed-treatment model of cryptococcal meningitis. Format: in vivo, Cryptococcus neoformans. The following applies: treatment from 24 h after infection, QD 7 days; APX2096 60 mg/kg i.p. + ABT, AMB 3 mg/kg i.p. Here is the method: As in the previous mouse model, 100-mg/kg ABT (p.o.) was administered 2 h prior to each APX2096 dose (n = 5 mice/cohort). Infection was initiated on day 1, and treatment was initiated 24 h later (day 2) rather than 1 h later. Treatments were administered for 7 days (the final dose was administered on day 8), and mice were sacrificed on day 9 for CFU enumeration.
Male CD-1 mice were infected with 5.4 × 10^4 CFU per mouse via lateral tail vein injection. […] A dose of 100-mg/kg ABT was administered orally 2 h prior to each APX2096 dose. Mice were sacrificed 24 h after the last dose, and the brain and left lung were homogenized and cultured for quantitative determination of the tissue burden (number of CFU per gram of tissue). Fungal burden data were log10 transformed and evaluated using Kruskal-Wallis tests with Dunn's multiple-comparison test for post hoc analysis (Prism software, v5; GraphPad Software, Inc., San Diego, CA). A P value of ≤0.05 was considered statistically significant (*, P ≤ 0.05; **, P ≤ 0.01). The 95% confidence interval (CI) is presented.
Fungal burden data were log10 transformed and evaluated using Kruskal-Wallis tests with Dunn's multiple-comparison test for post hoc analysis (Prism software, v5; GraphPad Software, Inc., San Diego, CA). A P value of ≤0.05 was considered statistically significant.

The test system of series [3] is C. neoformans. More on the design: method as in PMID 15078612. The following applies: U.S. isolates; cited from earlier work.
The next series relates to A. fumigatus MYA3626. In words: Broth microdilution susceptibility testing for molds (CLSI M38-A2). Format: cell-based. Particulars: Aspergillus fumigatus, MYA3626; read-out: MIC or MEC for A. fumigatus MYA3626.
Text: as §1, §2

For a further series, the system named is C. albicans 90028. In words: Broth microdilution susceptibility testing (CLSI M27-A3). The format is cell-based, Candida albicans. The following applies: Candida albicans, 90028; read-out: MIC, C. albicans 90028.
Text: as §1, §2

Series [4] relates to FLC-susceptible and FLC-nonsusceptible/resistant strains of C. neoformans and C. gattii. In words: Broth microdilution, summary over the 18-strain Cryptococcus collection. Format: cell-based, Cryptococcus neoformans and Cryptococcus gattii. The following applies: 18 strains of C. neoformans and C. gattii. Here is the method: as §2, with “The minimum concentration that led to the shortening of hyphae compared to the hyphal growth in DMSO control wells was determined as the minimum effective concentration (MEC) for A. fumigatus (as read for the echinocandins).” left out

Series [5] can be described thus: Acute toxicity and survival observed in the CM model with ABT. The format is in vivo, mouse. Particulars: i.p. dosing + ABT; dose then reduced to 60 mg/kg for surviving mice. As for the experimental part: (§3) ABT at 100 mg/kg was administered orally to male CD-1 mice at 2 h prior to each APX compound dose. Mice were injected with 6.9 × 10^4 CFU of C. neoformans strain H99 per mouse via the lateral tail vein at time zero. Treatment with the APX compound was initiated at about 1 h postinfection by i.p. administration and continued for 7 days, with 100-mg/kg ABT being administered orally 2 h prior to each APX compound dose. […] Fungal burden data were log10 transformed and evaluated using Kruskal-Wallis tests with Dunn's multiple-comparison test for post hoc analysis (Prism software, v5; GraphPad Software, Inc., San Diego, CA). A P value of ≤0.05 was considered statistically significant (*, P ≤ 0.05; **, P ≤ 0.01). The 95% confidence interval (CI) is presented.
(§4) C. neoformans strain H99 was grown in yeast extract-peptone-dextrose broth at 30°C on a shaker (220 rpm) for 24 h, centrifuged (1,980 relative centrifugal force), and washed twice in phosphate-buffered saline (PBS), resuspended in PBS, and quantified by hemacytometric count. Male CD-1 mice were infected with ∼5 × 10^4 CFU per mouse via lateral tail vein injection of 100 μl. Mice were weighed, and treatment was begun within 1 h after infection. Treatments were administered daily for 7 days. Mice were weighed daily and observed for acute and chronic adverse symptoms. Mice were sacrificed on day 8, and the brain and left lung were homogenized and cultured for quantitative determination of the tissue burden (number of CFU per gram of tissue). Tissues were homogenized for 25 s in 1 ml phosphate-buffered saline using two 6.5-mm steel beads and a Mini-Beadbeater 16 apparatus (Biospec Products, Inc., Bartlesville, OK) and serially diluted in 10-fold steps. Aliquots (100 μl) of homogenate were plated and incubated for 3 to 7 days at 37°C. Fungal burden data were log10 transformed and evaluated using Kruskal-Wallis tests with Dunn's multiple-comparison test for post hoc analysis (Prism software, v5; GraphPad Software, Inc., San Diego, CA). A P value of ≤0.05 was considered statistically significant.

Series [6] concerns C. neoformans strain H99. In words: Murine cryptococcal meningitis model with ABT pretreatment (preliminary experiment). The format is in vivo, Cryptococcus neoformans. The following applies: 7 days. Here is the method:
In a preliminary experiment, the efficacies of APX001, APX2096, and APX2097 were evaluated in the disseminated model of CM (n = 5 mice/cohort). ABT at 100 mg/kg was administered orally to male CD-1 mice 2 h prior to APX compound administration. Mice were injected with 6.9 × 10^4 CFU of C. neoformans strain H99 per mouse via the lateral tail vein at time zero. Treatment with each prodrug was initiated at about 1 h postinfection by i.p. administration and continued daily for 7 days, with 100-mg/kg ABT being administered orally 2 h prior to each APX compound dose.
as §3, §4

In series [7] the test system is C. neoformans strain H99. The experiment in a line: Murine cryptococcal meningitis model with ABT, dose-response study. The format is in vivo, Cryptococcus neoformans. Here is the method: A dose-response study was performed with APX2096 and APX2097 to confirm the observed activity. In this study, QD doses of 7.5, 20, and 60 mg/kg were evaluated in conjunction with the administration of ABT. A 60-mg/kg dose QD without ABT was also evaluated as a control.
FIG 3 Dose-response of APX2096 and APX2097 in a murine model of cryptococcal meningitis in conjunction with ABT administration. ABT at 100 mg/kg was administered orally to male CD-1 mice at 2 h prior to each APX compound dose. Mice were injected with 4.8 × 10^4 CFU C. neoformans strain H99 per mouse via the lateral tail vein at time zero. Treatment with the APX compounds was initiated at 1 h postinfection by i.p. administration and continued for 7 days, with 100-mg/kg ABT being administered orally 2 h prior to each APX compound dose. The correction factors for prodrug potencies versus the potencies of the active moieties were similar enough such that the same factor (1.3) was used for all APX compounds. Fungal burden data were log10 transformed and evaluated using Kruskal-Wallis tests with Dunn's multiple-comparison test for post hoc analysis (Prism software, v5; GraphPad Software, Inc., San Diego, CA). […] A P value of ≤0.05 was considered statistically significant (*, P ≤ 0.05; **, P ≤ 0.01; ***, P ≤ 0.001). The 95% confidence interval (CI) is presented.
as §4

Setting [8] is: 34 mg/kg QD i.p. + ABT 100 mg/kg p.o.

In brackets after ≈: the same amount, converted by molar mass. Where two headings read alike, the source gives them in different places.

In the case of `C[C@@H]1[C@H](O)[C@@H](C)/C=C/C=C/C=C/C=C/C=C/C=C/C=C/[C@H](O[C@@H]2O[C@H](C)[C@@H](O)[C@H](N)[C@@H]2O)C[C@@H]2O[C@](O)(C[C@@H](O)C[C@@H](O)[C@H](O)CC[C@@H](O)C[C@@H](O)CC(=O)O[C@H]1C)C[C@H](O)[C@H]2C(=O)O` [AMB, amphotericin B, reference compound], the MIC – broadly, the smallest concentration in the dilution series that meets the test's criterion for growth inhibition – in the series with C. neoformans [1] (72 h, Table 1, 50% growth inhibition for FLC, caspofungin and APX compounds, 100% for AMB, 72 h, read-out: MIC, C. neoformans H99) is 0.25 µg/mL; in the series with C. neoformans [1] (C. neoformans isolate 14116, read-out: MIC), 0.25 µg/mL; in the series on C. neoformans [1] (C. neoformans isolate 76484, read-out: MIC), 0.25 µg/mL; in the series with C. neoformans [1] (C. neoformans isolate DUMC 118.00 (FLC resistant), read-out: MIC), 0.25 µg/mL; with C. neoformans [1] (C. neoformans isolate DUMC 158.03 (FLC resistant), read-out: MIC) it was 1 µg/mL; in the series on C. neoformans [1] (C. neoformans isolate MYA-4564, read-out: MIC), 0.25 µg/mL. Also, the MIC came out at 0.125 µg/mL with C. neoformans [1] (C. neoformans isolate MYA-4565, read-out: MIC); 0.25 µg/mL with C. neoformans [1] (C. neoformans isolate MYA-4566, read-out: MIC); 0.25 µg/mL with C. neoformans [1] (C. neoformans isolate MYA-4567, read-out: MIC); 0.25 µg/mL with C. neoformans [1] (Table 2, C. neoformans isolate H99, read-out: MIC); 0.25 µg/mL with C. gattii (C. gattii isolate MYA-4093, read-out: MIC); 0.25 µg/mL in the series with C. gattii (C. gattii isolate MYA-4094, read-out: MIC). Moreover, the MIC was 0.063 µg/mL with C. gattii (C. gattii isolate MYA-4560 (first listing, r17), read-out: MIC); 0.063 µg/mL in the series with C. gattii (C. gattii isolate MYA-4560 (second listing, r21), read-out: MIC); 0.25 µg/mL in the series with C. gattii (C. gattii isolate MYA-4561, read-out: MIC); 0.25 µg/mL in the series with C. gattii (C. gattii isolate MYA-4562, read-out: MIC); 0.125 µg/mL in the series with C. gattii (C. gattii isolate MYA-4563, read-out: MIC); 0.25 µg/mL in the series on C. gattii (C. gattii isolate MYA-4877, read-out: MIC). In addition, the MIC is 0.25 µg/mL in the series with C. gattii (C. gattii isolate RSA-MW-3615 (FLC resistant), read-out: MIC); 0.25 µg/mL with C. gattii (Table 1, 50% growth inhibition for FLC, caspofungin and APX compounds, 100% for AMB, read-out: MIC, C. gattii WM276); 1 µg/mL in the series with A. fumigatus MYA3626; 1 µg/mL in the series with C. albicans 90028; 0.215 µg/mL in [4] (read-out: Geometric mean MIC). The “reduction of the lung tissue fungal burden vs untreated control” value in the series with C. neoformans strain H99 [2] is 4.02 log10 CFU/g. Moreover, the MIC90 (as a rule, an inhibitory concentration at the 90% level, which refers to growth in some studies and to a panel of isolates in others) was 2 µg/mL (≈ 2.16 µM) in the series on C. neoformans [3] and 0.25 µg/mL in series [4].

On to `Nc1c(-c2cc(Cc3ccc(Oc4cccc(F)n4)cc3)no2)ccc[n+]1COP(=O)([O-])O` [APX2096], for which, in the series on C. neoformans strain H99 [2], the “reduction in brain tissue fungal burden vs untreated control” value is on record as 6.84 log10 CFU/g. In addition, the “reduction of the lung tissue fungal burden vs untreated control” value in the series with C. neoformans strain H99 [2] was 4.59 log10 CFU/g. In series [5], the “Acute toxicity observed (day of treatment)” value is given as “day 1”. Moreover, the “reduction in brain fungal burden” value in the series on C. neoformans strain H99 [6] (setting [8]) is recorded as 7.05 log10 CFU/g; in the series on C. neoformans strain H99 [6] (60 mg/kg i.p. (dose reduced after day 1) + ABT), 7.13 log10 CFU/g; in the series on C. neoformans strain H99 [7] (20 mg/kg QD i.p. + ABT), 2.95 log10 CFU/g. Besides, the “reduction in lung fungal burden” value was “approximately 4.67 log10 CFU/g” with C. neoformans strain H99 [6] (setting [8]); “approximately 4.67 log10 CFU/g” with C. neoformans strain H99 [6] (60 mg/kg i.p. (dose reduced after day 1) + ABT, burden below the limit of detection); 3.69 log10 CFU/g with C. neoformans strain H99 [7] (20 mg/kg QD i.p. + ABT). Moreover, in the series on C. neoformans strain H99 [7] (60 mg/kg/day i.p. without ABT, nonsignificant), the “reduction in lung burden, without ABT” value turned out to be 0.74 log10 CFU/g.
